1 compound from patent publication US8835489B2, “Compounds of the pterocarpanquinone family, method for preparing the same, pharmaceutical composition containing the new compounds of the pterocarpanquinone family, uses and therapeutic method” (Universidade Federal Do Rio de Janeiro, priority 2008, dated 2014) can be followed below.

One test deals with neutrophils in LBA. Put plainly: LPS inhalation in mice, neutrophils in bronchoalveolar lavage. As to conditions: in vivo, FIG. 4, p<0.05 compared to vehicle group.
A further test relates to TNF-α release by PBMC. The test is described as follows: LPS-stimulated release of TNF-α by PBMC in vitro. In kind it is cell-based, human. As to conditions: FIG. 3, p<0.05.

Procedure for TNF-α release by PBMC: Mononuclear cells were obtained from peripheral blood of healthy donors by gradient centrifugation in Ficoll. 20 ml peripheral blood were carefully added to 16 mL of Ficoll followed by centrifugation at 1500×g for 30 minutes. Once collected, the PBMC were washed twice with saline and resuspended in culture field RPMI 1640 containing 0.1 mg streptomycin/mL, penicillin 100 U/mL and supplemented with 10% of FCS. The PBMC resuspended in RPMI were seeded in 24-well plate (8×10^5 cells/well). The cells were incubated with LPS at a concentration of 2 μg/mL at 37° C. in 4% CO2 for 2 hours. After incubation with LPS, the supernatant was collected and centrifuged at 14,000×g for 1 minute to rule out any possible cell. The supernatant was stored at −20° C. for subsequent cytokine. […] A group of cells received only the vehicle.
Procedure for neutrophils in LBA: For inhalation of LPS, we used a glass inhalation chamber with a volume of 1 liter, with a capacity of 8 mice. The mice were placed in this chamber for five minutes and inhaled aerosols produced by positive pressure of 2 mL of a suspension of LPS containing 0.5 mg/mL, prepared in physiological saline (NaCl 0.9%). The control group inhaled saline only. Groups of animals were treated with LQB dissolved in physiological saline with 10% ethanol (vehicle) at doses of 1, 10 and 100 mg/kg. The substances were administered in a volume of 200 μL intraperitoneal (ip) 1 hour before LPS inhalation. In parallel, groups of animals were treated with 200 μL of the vehicle. Three hours after inhalation of LPS, animals were sacrificed by cervical dislocation, their tracheas were exposed, cannulated and lungs were washed with saline to a final volume of 1.5 mL in tubes kept at 4° C. […] An aliquot of 300 μL of lavage was used to count and identify the cells and the remainder was centrifuged at 1,500×g for 10 minutes (Sorvall, USA). […] The total number of cells was determined in a cell counter type Coulter Counter (Coulter Electronics Inc.—USA). The identification of different cell types present in BAL cytospin was made after 200 μl of LBA at 80×g for 1 minute (Shandon—USA). The slides prepared from cytospin stained with Diff-Quick kit (Shandon, USA). We counted approximately 200 cells on each slide. […]

`O=C1C2=C(C(=O)c3ccccc31)[C@H]1Oc3ccccc3[C@H]1CO2` [LQB1]: in the test with neutrophils in LBA, the “release of neutrophils in LBA” value is “inhibiting the release of neutrophils”. For the same compound, the “release of TNF-α by PBMC” value in the test with TNF-α release by PBMC is “inhibiting release of TNF-α”.
